{
  "source": "PubChem BioAssay (NCI)",
  "experiment_in_all_cases": "DTP human tumour cell line panel, 384-well format",
  "key": {"HL-60(TB) leukemia": {"system": "HL-60(TB) leukemia"}, "NCI-H226 lung": {"system": "NCI-H226 lung"}, "TK-10 renal": {"system": "TK-10 renal"}, "MOLT-4 leukemia": {"system": "MOLT-4 leukemia"}, "MDA-MB-231 breast": {"system": "MDA-MB-231 breast"}, "HCT-116 colon": {"system": "HCT-116 colon"}, "HCT-15 colon": {"system": "HCT-15 colon"}, "786-0 renal": {"system": "786-0 renal"}, "K-562 leukemia": {"system": "K-562 leukemia"}, "SNB-19 CNS": {"system": "SNB-19 CNS"}, "DU-145 prostate": {"system": "DU-145 prostate"}, "A498 renal": {"system": "A498 renal"}, "KM12 colon": {"system": "KM12 colon"}},
  "note": "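At the GI50, growth is halved. TGI marks complete inhibition of growth.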",
  "data": [
    {"smiles": "C=CC(=O)N1CCN(CCCn2c(=O)c(-c3c(Cl)c(OC)cc(OC)c3Cl)cc3cnc(NC)nc32)CC1", "values": [
      {"measurement": "GI50", "setting": "HL-60(TB) leukemia", "value": 1.55, "unit": "µM"},
      {"measurement": "TGI", "setting": "HL-60(TB) leukemia", "value": 4.2, "unit": "µM"},
      {"measurement": "TGI", "setting": "NCI-H226 lung", "value": 11.8, "unit": "µM"},
      {"measurement": "GI50", "setting": "TK-10 renal", "value": 5.98, "unit": "µM"},
      {"measurement": "TGI", "setting": "TK-10 renal", "value": 19.5, "unit": "µM"},
      {"measurement": "GI50", "setting": "MOLT-4 leukemia", "value": 0.689, "unit": "µM"},
      {"measurement": "TGI", "setting": "MOLT-4 leukemia", "value": 1.96, "unit": "µM"},
      {"measurement": "GI50", "setting": "MDA-MB-231 breast", "value": 3.94, "unit": "µM"},
      {"measurement": "TGI", "setting": "MDA-MB-231 breast", "value": 14.9, "unit": "µM"},
      {"measurement": "GI50", "setting": "HCT-116 colon", "value": 3.55, "unit": "µM"},
      {"measurement": "TGI", "setting": "HCT-116 colon", "value": 14.7, "unit": "µM"},
      {"measurement": "GI50", "setting": "HCT-15 colon", "value": 2.37, "unit": "µM"},
      {"measurement": "TGI", "setting": "HCT-15 colon", "value": 14.9, "unit": "µM"},
      {"measurement": "GI50", "setting": "786-0 renal", "value": 2.38, "unit": "µM"},
      {"measurement": "TGI", "setting": "786-0 renal", "value": 13.7, "unit": "µM"},
      {"measurement": "GI50", "setting": "K-562 leukemia", "value": 5.67, "unit": "µM"},
      {"measurement": "TGI", "setting": "K-562 leukemia", "value": 18.3, "unit": "µM"},
      {"measurement": "GI50", "setting": "SNB-19 CNS", "value": 5.11, "unit": "µM"},
      {"measurement": "TGI", "setting": "SNB-19 CNS", "value": 17.3, "unit": "µM"},
      {"measurement": "GI50", "setting": "DU-145 prostate", "value": 4.02, "unit": "µM"},
      {"measurement": "TGI", "setting": "DU-145 prostate", "value": 18.1, "unit": "µM"},
      {"measurement": "GI50", "setting": "A498 renal", "value": 0.462, "unit": "µM"},
      {"measurement": "TGI", "setting": "A498 renal", "value": 4.69, "unit": "µM"},
      {"measurement": "GI50", "setting": "KM12 colon", "value": 6.06, "unit": "µM"},
      {"measurement": "TGI", "setting": "KM12 colon", "value": 18.8, "unit": "µM"}
    ]}
  ]
}
